Assay results taken from patent US9949964B2, “Tesofensine compositions” (Saniona A/S, priority 2016, dated 2018).

Tests used:
[1] = Drug excipient compatibility study, chemical stability of binary mixtures of tesofensine and excipients; format: physicochemical
Excerpt: A compatibility study investigating the chemical stability of binary mixtures of tesofensine and pharmaceutically acceptable excipients has been conducted.

[2] = Solubility of the active ingredient in granulating liquid; format: physicochemical; details: ethanol/mixtures compared to pure water or ethanol
Excerpt: Microcrystalline cellulose also was compatible with the active ingredient. Hydroxypropylcellulose was selected as binder due to its compatibility with the active ingredient. The amount of binder was adequate to provide sufficient resistance to crushing and plasticity of the granules. Crosscarmelllose sodium was selected as disintegrant as it is an effective disintegrant and is compatible with the active ingredient. The amount of croscarmellose sodium was sufficient to provide the desired disintegration. The amount of magnesium stearate selected was sufficient to avoid sticking to tableting tooling during compression. Ethanol was selected as co-solvent in the granulating liquid as ethanol evaporates easily for improved drying properties of the granulate.

[3] = cited from earlier work
[4] = Dissolution tests / dissolution profile; format: physicochemical
Description: The active ingredient dissolves from the coated tablets within 30 minutes. FIGS. 1, 2 and 3 show dissolution profiles for tesofensine compositions B and C with a dose strength of 0.25 mg, 0.5 mg and 1.0 mg.

Compound	Compatibility of excipient with tesofensine [1]	Solubility of the active ingredient [2]	in-vivo half-life [3]	Solubility [4]	Decomposition of tesofensine with excipient [1]
O.OC[C@H]1O[C@@H](O[C@H]2[C@H](O)[C@@H](O)C(O)O[C@@H]2CO)[C@H](O)[C@@H](O)[C@H]1O (stereo partly drawn) [lactose, lactose monohydrate]	compatible	–	–	–	–
CCOC[C@H]1C2CCC(C[C@@H]1c1ccc(Cl)c(Cl)c1)N2C (stereo partly drawn) [tesofensine, (3S,4R)-3-(3,4-dichlorophenyl)-4-(ethoxymethyl)-8-methyl-8-azabicyclo[3.2.1]octane]	–	increased	in the range of days	readily soluble	–
magnesium stearate	Incompatibility	–	–	–	the extent of decomposition was low
